Assay results as given in US5591758A, “Organic nitrates, processes for their preparation and their use in the treatment of cardiovascular diseases” (Laboratoires Hoechst, SA, priority 1991, dated 1997).
Where “and” joins values, the source holds several entries; their conditions need not be identical. Identical values can stand only once. Counter-ions that a name gives are not always drawn.

Tested on: anaesthetised dogs
Experiment: Tachyphylaxis model on anaesthetised dogs (repeated i.d. administration)
Type: in vivo, dogs (labrador/harrier cross)
Design: Δdp/dt average / ΔBPs / ΔBPd / ΔLVEDP / ΔHR / ΔBPs average / ΔBPd average / ΔLVEDP average / ΔHR average: unit not given here
Conditions: for Δdp/dt / ΔBPd / ΔBPs / ΔHR / ΔLVEDP: single dog
Description: Comparison with isosorbide mononitrate (IS-5-MN).
The product (46) is tested in a tachyphylaxis model on anaesthetised dogs. IS-5-MN is used as reference substance.
8 dogs of each sex, weighing between 16 and 24 kg, are used. These dogs are the progeny of a labrador/harrier cross. Anaesthesia is induced with the aid of sodium pentobarbital (45 mg/kg i.v.) and maintained by i.v. perfusion (flow rate: 8 mg/kg/h). The animals are ventilated, with the aid of a "Bird Mark 7" respirator, using ambient air, and catheterised. […] The arterial blood gases are measured at regular intervals.
IS-5-MN is also dissolved in water and given i.d. in a dosage of 5 mg/kg in a volume of 10 ml/animal.
Three hours (in the case of IS-5-MN) or four hours (in the case of (46)) after the first administration, the compounds are readministered in the same dosage and by the same route. The haemodynamic parameter chosen for the study of the tachyphylaxis is the systolic blood pressure (BPs), insofar as this parameter is very sensitive to the administration of the compounds.

[1] = i.d., IS-5-MN 5 mg/kg, (46) 0.75 mg/kg
[2] = n = 4, 1st administration, 0.75 mg/kg i.d., 5 min
[3] = n = 4, 1st administration, 0.75 mg/kg i.d., 10 min
[4] = n = 4, 1st administration, 0.75 mg/kg i.d., 15 min
[5] = n = 4, 1st administration, 0.75 mg/kg i.d., 30 min
[6] = n = 4, 1st administration, 0.75 mg/kg i.d., 60 min
[7] = n = 4, 1st administration, 0.75 mg/kg i.d., 120 min
[8] = n = 4, 1st administration, 0.75 mg/kg i.d., 180 min
[9] = n = 4, 1st administration, 0.75 mg/kg i.d., 240 min
[10] = n = 4, 2nd administration, 0.75 mg/kg i.d., 5 min
[11] = n = 4, 2nd administration, 0.75 mg/kg i.d., 10 min
[12] = n = 4, 2nd administration, 0.75 mg/kg i.d., 15 min
[13] = n = 4, 2nd administration, 0.75 mg/kg i.d., 30 min
[14] = n = 4, 2nd administration, 0.75 mg/kg i.d., 60 min
[15] = n = 4, 2nd administration, 0.75 mg/kg i.d., 120 min
[16] = 1st administration, 0.75 mg/kg i.d., 5 min, monohydrochloride, 0.75 mg/kg
[17] = 1st administration, 0.75 mg/kg i.d., 10 min, monohydrochloride, 0.75 mg/kg
[18] = 1st administration, 0.75 mg/kg i.d., 15 min, monohydrochloride, 0.75 mg/kg
[19] = 1st administration, 0.75 mg/kg i.d., 30 min, monohydrochloride, 0.75 mg/kg
[20] = 1st administration, 0.75 mg/kg i.d., 60 min, monohydrochloride, 0.75 mg/kg
[21] = 1st administration, 0.75 mg/kg i.d., 120 min, monohydrochloride, 0.75 mg/kg
[22] = 1st administration, 0.75 mg/kg i.d., 180 min, monohydrochloride, 0.75 mg/kg
[23] = 1st administration, 0.75 mg/kg i.d., 240 min, monohydrochloride, 0.75 mg/kg
[24] = 2nd administration, 0.75 mg/kg i.d., 5 min
[25] = 2nd administration, 0.75 mg/kg i.d., 5 min, monohydrochloride, 0.75 mg/kg
[26] = 2nd administration, 0.75 mg/kg i.d., 10 min
[27] = 2nd administration, 0.75 mg/kg i.d., 10 min, monohydrochloride, 0.75 mg/kg
[28] = 2nd administration, 0.75 mg/kg i.d., 15 min, monohydrochloride, 0.75 mg/kg
[29] = 2nd administration, 0.75 mg/kg i.d., 30 min, monohydrochloride, 0.75 mg/kg
[30] = 2nd administration, 0.75 mg/kg i.d., 60 min, monohydrochloride, 0.75 mg/kg
[31] = 2nd administration, 0.75 mg/kg i.d., 120 min, monohydrochloride, 0.75 mg/kg

`O=C(CNC(=O)[C@@H]1CSCN1)N[C@H]1CO[C@H]2[C@@H]1OC[C@@H]2O[N+](=O)[O-]` [Compound 46, 5-[[2-[[(4-L-Thiazolidinyl)carbonyl]amino]-1oxoethyl]amino]-5-deoxy-2-O-nitro-1,4:3,6-dianhydro-L-iditol monohydrochloride] was tested, and the “fall in the BPs, first administration, on average” value (0.75 mg/kg i.d.) was -30 mmHg, the period of action (compared with IS-5-MN, first administration) was “longer” and the “development of tachyphylaxis after repeated administration” value (dogs, two i.d. administrations) was “absence of the development of tachyphylaxis”. For the same molecule, the “maximum fall in the BP after second administration” value [1] was -33 mmHg, the “time of maximum effect on BPs after first administration” value [1] was 60 min and the “time of maximum fall in the BP after second administration” value [1] was 60 min. It also gave a ΔBPd average [2] of -4, a ΔBPs average [2] of -5 and a ΔHR average [2] of -1. The ΔLVEDP average [2] was -0, the Δdp/dt average [2] was 0 and the ΔBPd average [3] was -11. It also gave a ΔBPs average [3] of -18, a ΔHR average [3] of -1 and a ΔLVEDP average [3] of -2. For the same molecule, the Δdp/dt average [3] was -100, the ΔBPd average [4] was -16 and the ΔBPs average [4] was -26. It also gave a ΔHR average [4] of -1, a ΔLVEDP average [4] of -2 and a Δdp/dt average [4] of -125. It also gave a ΔBPd average [5] of -20, a ΔBPs average [5] of -30 and a ΔHR average [5] of -2. The ΔLVEDP average [5] was -2, the Δdp/dt average [5] was -150 and the ΔBPd average [6] was -20. For the same molecule, the ΔBPs average [6] was -33, the ΔHR average [6] was -8 and the ΔLVEDP average [6] was -3. The Δdp/dt average [6] was -200, the ΔBPd average [7] was -20 and the ΔBPs average [7] was -31. It also gave a ΔHR average [7] of -10, a ΔLVEDP average [7] of -4 and a Δdp/dt average [7] of -250. The ΔBPd average [8] was -15, the ΔBPs average [8] was -24 and the ΔHR average [8] was -6. The ΔLVEDP average [8] was -4, the Δdp/dt average [8] was -150 and the ΔBPd average [9] was -7. For the same molecule, the ΔBPs average [9] was -12, the ΔHR average [9] was 0 and the ΔLVEDP average [9] was -4. It also gave a Δdp/dt average [9] of 25, a ΔBPd average [10] of -5 and a ΔBPs average [10] of -6. The ΔHR average [10] was 0, the ΔLVEDP average [10] was 0 and the Δdp/dt average [10] was -50. It also gave a ΔBPd average [11] of -6, a ΔBPs average [11] of -11 and a ΔHR average [11] of 0. It also gave a ΔLVEDP average [11] of 0, a Δdp/dt average [11] of -75 and a ΔBPd average [12] of -10. For the same molecule, the ΔBPs average [12] was -18, the ΔHR average [12] was -1 and the ΔLVEDP average [12] was 0. It also gave a Δdp/dt average [12] of -125, a ΔBPd average [13] of -15 and a ΔBPs average [13] of -25. For the same molecule, the ΔHR average [13] was -1, the ΔLVEDP average [13] was -1 and the Δdp/dt average [13] was -225. For the same molecule, the ΔBPd average [14] was -19, the ΔBPs average [14] was -33 and the ΔHR average [14] was -4. It also gave a ΔLVEDP average [14] of -2, a Δdp/dt average [14] of 350 and a ΔBPd average [15] of -15. The ΔBPs average [15] was -26, the ΔHR average [15] was -2 and the ΔLVEDP average [15] was -2. The Δdp/dt average [15] was -275, the Δdp/dt (1st administration, 0.75 mg/kg i.d., 5 min) was 0 and the ΔBPd [16] was -5 and 0. For the same molecule, the ΔBPs [16] was -5 and -10 and 0, the ΔHR [16] was 0 and -5 and the ΔLVEDP [16] was 0 and -1. For the same molecule, the Δdp/dt (1st administration, 0.75 mg/kg i.d., 10 min) was -100, the ΔBPd [17] was -10 and -15 and the ΔBPs [17] was -15 and -20. For the same molecule, the ΔHR [17] was 0 and -5, the ΔLVEDP [17] was -2 and 0 and -3 and the ΔBPd [18] was -15 and -20. For the same molecule, the ΔBPs [18] was -25 and -20 and -35, the ΔHR [18] was 0 and -5 and the ΔLVEDP [18] was -3 and -2 and 1. The Δdp/dt [18] was -100 and -200, the ΔBPd [19] was -20 and -15 and -25 and the ΔBPs [19] was -30 and -20 and -40. The ΔHR [19] was -5 and 0, the ΔLVEDP [19] was -4 and -2 and 1 and the Δdp/dt [19] was -100 and -200. The ΔBPd [20] was -20 and -25 and -10, the ΔBPs [20] was -30 and -35 and -15 and -50 and the ΔHR [20] was -10 and -5. For the same molecule, the ΔLVEDP [20] was -3 and -2 and -4, the Δdp/dt [20] was -200 and -300 and 0 and the ΔBPd [21] was -20 and -25 and -10. For the same molecule, the ΔBPs [21] was -30 and -35 and -15 and -45, the ΔHR [21] was -15 and 5 and the ΔLVEDP [21] was -2 and -6 and -4. The Δdp/dt [21] was -200 and -300, the ΔBPd [22] was -20 and -5 and -15 and the ΔBPs [22] was -25 and -30 and -10. For the same molecule, the ΔHR [22] was -10 and -15 and 10, the ΔLVEDP [22] was -3 and -2 and -7 and -4 and the Δdp/dt [22] was -200 and -300 and -100 and 0. The ΔBPd [23] was -10 and -20 and 0, the ΔBPs [23] was -15 and -20 and 0 and the ΔHR [23] was -5 and -10 and 0 and 15. For the same molecule, the ΔLVEDP [23] was -4 and -3 and -7, the Δdp/dt [23] was -100 and 0 and 300 and the ΔBPd [24] was -5. The ΔHR [24] was 0, the ΔBPs [25] was -5 and -10 and the ΔLVEDP [25] was 0 and 1. For the same molecule, the Δdp/dt [25] was 0 and -100, the ΔHR [26] was 0 and the ΔLVEDP [26] was 0. For the same molecule, the ΔBPd [27] was -10 and -5, the ΔBPs [27] was -15 and -5 and -10 and the Δdp/dt [27] was 0 and -100 and -200. The ΔBPd [28] was -15 and -10 and -5, the ΔBPs [28] was -20 and -15 and the ΔHR [28] was -5 and 0. The ΔLVEDP [28] was -1 and 2 and 0, the Δdp/dt [28] was -100 and 0 and -300 and the ΔBPd [29] was -15 and -10 and -25. The ΔBPs [29] was -25 and -20 and -35, the ΔHR [29] was 0 and -5 and the ΔLVEDP [29] was -1 and 0 and -2. The Δdp/dt [29] was -100 and -600, the ΔBPd [30] was -15 and -10 and -35 and the ΔBPs [30] was -30 and -20 and -50. For the same molecule, the ΔHR [30] was -5 and -10 and 0, the ΔLVEDP [30] was -1 and -3 and the Δdp/dt [30] was -100 and -200 and -900. For the same molecule, the ΔBPd [31] was -10 and -15 and -25, the ΔBPs [31] was -20 and -30 and -35 and the ΔHR [31] was 0 and -15 and 5. For the same molecule, the ΔLVEDP [31] was -1 and -2 and -3 and the Δdp/dt [31] was -100 and -200 and -600.
